# Reference: patent US7462600B2, “Macrolides” (Pfizer Inc, priority 2004, dated 2008)
# Read-outs that look alike come from different tables or passages of the source.
# Legend:
# Type in all cases: cell-based
# [1] = tested on: Streptococcus pneumoniae 1016; assay: MIC, microtiter broth dilution (NCCLS M100-S14), S. pneumoniae 1016 (susceptible)
# Description: (§1) The assay described herein includes a panel of bacterial strains assembled to include a variety of target pathogenic species, including representatives of macrolide resistance mechanisms that have been characterized. In many cases, both the macrolide-susceptible parent strain and the macrolide-resistant strain derived from it are available to provide a more accurate assessment of the compound's ability to circumvent the resistance mechanism. The assay is performed in microtiter trays and interpreted according to Performance Standards for Antimicrobial Susceptibility Testing; 14th Informational Supplement (M100-S14), published by The National Committee for Clinical Laboratory Standards (NCCLS) guidelines; the MIC is used to compare strains. Compounds are initially dissolved in DMSO as 40 mg/ml stock solutions.
# [2] = tested on: Haemophilus influenzae 1218; assay: MIC, microtiter broth dilution (NCCLS M100-S14), H. influenzae 1218 (susceptible)
# Description: as §1
# [3] = tested on: Streptococcus pyogenes 1079; assay: MIC, microtiter broth dilution (NCCLS M100-S14), S. pyogenes 1079 (ermB)
# Description: as §1
# [4] = tested on: Streptococcus pneumoniae 1175; settings: microtiter broth dilution
# Description: as §1
# [5] = tested on: Streptococcus pneumoniae 1095; settings: microtiter broth dilution
# Description: as §1
Molecule,MIC S. pneumo. 1016 ([1]; S. pneumoniae 1016 (susceptible)) [µg/mL],MIC H. influenzae 1218 ([2]; H. influenzae 1218 (susceptible)) [µg/mL],MIC S. pyogenes 1079 ([3]; S. pyogenes 1079 (ermB)) [µg/mL],MIC S. pneumo. 1175 ([4]; S. pneumoniae 1175 (mefA)) [µg/mL],MIC S. pneumo. 1095 ([5]; S. pneumoniae 1095 (ermB)) [µg/mL],MIC S. pneumo. 1016 ([1]; Streptococcus pneumoniae 1016) [µg/mL],MIC H. influenzae 1218 ([2]; Haemophilus influenzae 1218) [µg/mL],MIC S. pyogenes 1079 ([3]; Streptococcus pyogenes 1079) [µg/mL],MIC S. pneumo. 1175 ([4]; Streptococcus pneumoniae 1175) [µg/mL],MIC S. pneumo. 1095 ([5]; Streptococcus pneumoniae 1095) [µg/mL]
"3-descladinosyl-11,12-dideoxy-6-O-methyl-3-oxo-12,11-(oxycarbonyl-(1-((1H-benzo[d]imidazol-4-yl)-methyl)-(R)-pyrrolidin-3-yl)-imino)-erythromycin A [Example 9.06]",<0.06,0.25,4,<0.06,<0.06,,,,,
"3-descladinosyl-11,12-dideoxy-6-O-methyl-3-oxo-12,11-(oxycarbonyl-(1-((isoquinolin-4-yl)-methyl)-azetidin-3-yl)-imino)-erythromycin A [Example 1.30]",,,,,,<0.06,1,4,<0.06,<0.06
"3-descladinosyl-11,12-dideoxy-6-O-methyl-3-oxo-12,11-(oxycarbonyl-(1-(quinoline-6-sulfonyl)-azetidin-3-yl)-imino)-erythromycin A [Example 3.89]",,,,,,<0.06,1,8,<0.06,<0.06
"CCC(c1ccnc2ccccc12)N1CC(N2C(=O)OC3(C)C(CC)OC(=O)C(C)C(=O)C(C)C(OC4OC(C)CC(N(C)C)C4O)C(C)(OC)CC(C)C(=O)C(C)C23)C1 (mixture of isomers) [Example 1.61, 3-descladinosyl-11,12-dideoxy-6-O-methyl-3-oxo-12,11-(oxycarbonyl-(1-(1-(quinolin-4-yl)-propyl)-azetidin-3-yl)-imino)-erythromycin A]",,,,,,<0.06,4,8,0.25,<0.06
"CCC1OC(=O)C(C)C(=O)C(C)C(OC2OC(C)CC(N(C)C)C2O)C(C)(OC)CC(C)C(=O)C(C)C2N(C3CN(C(c4ccccc4)c4cccnc4)C3)C(=O)OC12C (single isomer, unassigned) [Example 1.66, phenyl-(pyridin-3-yl)methyl (*)]",,,,,,<0.06,2,64,<0.06,0.5
"CCC1OC(=O)C(C)C(=O)C(C)C(OC2OC(C)CC(N(C)C)C2O)C(C)(OC)CC(C)C(=O)C(C)C2N(C3CN(C(c4ccccc4)c4cccnc4)C3)C(=O)OC12C (single isomer, unassigned) [Example 1.67, phenyl-(pyridin-3-yl)methyl (*)]",,,,,,<0.06,0.5,16,<0.06,<0.06
"CCC1OC(=O)C(C)C(=O)C(C)C(OC2OC(C)CC(N(C)C)C2O)C(C)(OC)CC(C)C(=O)C(C)C2N(C3CN(C(c4ccccc4)c4ccncc4)C3)C(=O)OC12C (single isomer, unassigned) [Example 1.68, phenyl-(pyridin-4-yl)methyl (*)]",,,,,,<0.06,4,32,<0.06,4
CCC1OC(=O)C(C)C(=O)C(C)C(OC2OC(C)CC(N(C)C)C2O)C(C)(OC)CC(C)C(=O)C(C)C2N(CC3CN(C(=O)c4cc(F)ccc4F)C3)C(=O)OC12C (stereo not shown) [4.02],,,,,,0.01,3.12,100,0.5,0.5
"CCC1OC(=O)C(C)C(=O)C(C)C(OC2OC(C)CC(N(C)C)C2O)C(C)(OC)CC(C)C(=O)C(C)C2N(C3CN(Cc4cccc(-n5ccnn5)c4)C3)C(=O)OC12C (stereo not shown) [Example 1.56, 3-([1,2,3]triazol-1-yl)benzyl]",,,,,,,1,>64.00,<0.06,<0.06
"CCC1OC(=O)C(C)C(=O)C(C)C(OC2OC(C)CC(N(C)C)C2O)C(C)(OC)CC(C)C(=O)C(C)C2N(C3CN(Cc4ccc(-n5ccnc5)cc4)C3)C(=O)OC12C (stereo not shown) [Example 1.57, 4-(imidazol-1-yl)benzyl]",,,,,,,1,64,<0.06,<0.06
"CCC1OC(=O)C(C)C(=O)C(C)C(OC2OC(C)CC(N(C)C)C2O)C(C)(OC)CC(C)C(=O)C(C)C2N(C3CN(Cc4c(F)cccc4OC)C3)C(=O)OC12C (stereo not shown) [Example 1.85, 3-descladinosyl-11,12-dideoxy-6-O-methyl-3-oxo-12,11-(oxycarbonyl-(1-(1-fluoro-3-methoxybenzene-2-methyl)-azetidin-3-yl)-imino)-erythromycin A]",,,,,,<0.063,2,16,,
"CCC1OC(=O)C(C)C(=O)C(C)C(OC2OC(C)CC(N(C)C)C2O)C(C)(OC)CC(C)C(=O)C(C)C2N(C3CN(Cc4c(F)cccc4F)C3)C(=O)OC12C (stereo not shown) [Example 1.87, 3-descladinosyl-11,12-dideoxy-6-O-methyl-3-oxo-12,11-(oxycarbonyl-(1-(1,3-difluorobenzene-2-methyl)-azetidin-3-yl)-imino)erythromycin A]",,,,,,<0.063,0.5,8,,
"CCC1OC(=O)C(C)C(=O)C(C)C(OC2OC(C)CC(N(C)C)C2O)C(C)(OC)CC(C)C(=O)C(C)C2N(C3CN(Cc4ccccc4OC(F)(F)F)C3)C(=O)OC12C (stereo not shown) [Example 1.88, 3-descladinosyl-11,12-dideoxy-6-O-methyl-3-oxo-12,11-(oxycarbonyl-(1-(2-(trifluoromethoxy)benzene-1-methyl)-azetidin-3-yl)-imino)-erythromycin A]",,,,,,<0.063,0.5,8,,
"CCC1OC(=O)C(C)C(=O)C(C)C(OC2OC(C)CC(N(C)C)C2O)C(C)(OC)CC(C)C(=O)C(C)C2N(C3CN(S(=O)(=O)c4c(Cl)nc5sccn45)C3)C(=O)OC12C (stereo not shown) [Example 3.97, 3-descladinosyl-11,12-dideoxy-6-O-methyl-3-oxo-12,11-(oxycarbonyl-(1-(6-chloroimidazo[2,1-b]thiazole-5-sulfonyl)-azetidin-3-yl)-imino)-erythromycin A]",,,,,,,0.125,1,<0.063,0.25
